Source: patent publication US9393221B2, “Methods and compounds for reducing intracellular lipid storage” (THE GENERAL HOSPITAL CORPORATION, priority 2011, dated 2016)
Structures can show the parent of a compound that is named as a salt. Where two headings read alike, the source gives them in different places.

Tested on: ATGL-KO iPSCs
Assay: High throughput iPSC chemical screening, Oil Red O (ORO) lipid accumulation; for Z-score: test concentration or dose not given here
Type: cell-based, mouse
Settings: for Rank in normalized ORO score from screen: glycolytic switch compounds
[1] = normalized ORO level vs DMSO-treated cells, compound present during 7 days differentiation, 96-well, negative = decrease in lipid accumulation

Compound	Z-score	Z-score [1]	Rank in normalized ORO score from screen
COc1cc2c(c(OC)c1OC)-c1ccc(OC)c(=O)cc1[C@@H](NC(C)=O)CC2 [Colchicine]	35.6417	–	–
NC(N)=NCCCCN=C(N)N [Arcaine sulfate]	–	0.3237	–
CNNCc1ccc(C(=O)NC(C)C)cc1 [Procarbazine hydrochloride]	–	1.675	–
CN(Cc1cnc2nc(N)nc(N)c2n1)c1ccc(C(=O)N[C@@H](CCC(=O)O)C(=O)O)cc1 [Methotrexate]	–	7.697	–
NCCCC[C@H](N[C@@H](CCc1ccccc1)C(=O)O)C(=O)N1CCC[C@H]1C(=O)O [Lisinopril]	–	0.5403	–
CC1=CC(=O)C2=C(C)CC[C@@H]3[C@H](OC(=O)[C@H]3C)[C@@H]12 [Leucomisine]	–	−0.2458	–
Antimycin A	–	30.555	–
O=C1C(CC[S+]([O-])c2ccccc2)C(=O)N(c2ccccc2)N1c1ccccc1 (centres unmarked) [Sulfinpyrazone]	–	−1.4016	–
CCN1CCCC(OC(=O)C(c2ccccc2)c2ccccc2)C1 (centres unmarked) [Piperidolate hydrochloride]	–	−0.4895	449
CN(C)[C@@H]1C(O)=C(C(=O)NCNCCCC[C@H](N)C(=O)O)C(=O)[C@@]2(O)C(O)=C3C(=O)c4c(O)cccc4[C@@](C)(O)[C@H]3C[C@@H]12 [Lymecycline]	–	−1.3365	–
C=C1CC[C@H](O)C/C1=C/C=C1\CCC[C@]2(C)[C@@H]([C@H](C)/C=C/[C@H](C)C(C)C)CC[C@@H]12 [Calciferol]	–	0.2582	–
C[C@]1(OC(=O)/C=C/c2ccccc2)C[C@@H](O)[C@]2(O)C=CO[C@@H](O[C@@H]3O[C@H](CO)[C@@H](O)[C@H](O)[C@H]3O)[C@@H]21 [Harpagoside]	–	−1.174	–
O=c1[nH]c(=O)n([C@H]2C[C@H](O)[C@@H](CO)O2)cc1C(F)(F)F [Trifluridine]	–	21.7513	–
C[C@@H](O)[C@H]1C(=O)N2C(C(=O)O)=C(S[C@@H]3CN[C@H](C(=O)N(C)C)C3)[C@H](C)[C@H]12 [Meropenem]	–	0.5806	–
C[C@]12C=CC(=O)C=C1CC[C@H]1[C@@H]3C[C@@H](O)[C@](O)(C(=O)CO)[C@@]3(C)C[C@H](O)[C@@]12F [Triamcinolone]	–	−1.1722	–
C=C1CC[C@H](O)C/C1=C/C=C1\CCC[C@]2(C)[C@@H]([C@H](C)CCCC(C)C)CC[C@@H]12 [Cholecalciferol]	–	0.4701	–
CCN(CC)CCOC(=O)C(c1ccccc1)c1ccccc1 [Adiphenine hydrochloride]	–	0.801	–
CCN(CC)C(C)CN1c2ccccc2Sc2ccccc21 (centres unmarked) [Ethopropazine hydrochloride]	–	−1.7382	–
C[C@@H]1CC[C@@]2(OC1)O[C@H]1C[C@H]3[C@@H]4CC[C@@]5(C)C[C@@H](O)CC[C@]5(C)[C@H]4CC(=O)[C@]3(C)[C@H]1[C@@H]2C [Hecogenin]	–	0.9208	–
CC(=O)OCC(=O)[C@H]1CC[C@H]2[C@@H]3CC[C@H]4C[C@H](O)CC[C@]4(C)[C@H]3C(=O)C[C@]12C [Alfadolone acetate]	–	−0.4554	–
C=C(CC)C(=O)c1ccc(OCC(=O)O)c(Cl)c1Cl [Ethacrynic acid]	–	−0.302	–
CN(C)CCC(c1ccc(Cl)cc1)c1ccccn1 (centres unmarked) [Chlorpheniramine maleate]	–	−0.5399	–
CC(=O)O[C@H]1C[C@@H]2CC[C@@H]3[C@H](CC[C@@]4(C)[C@H]3C[C@H]([N+]3(C)CCCCC3)[C@@H]4OC(C)=O)[C@@]2(C)C[C@@H]1[N+]1(C)CCCCC1 [Pancuronium bromide]	–	0.2708	–
COC(=O)[C@H]1[C@H]2C[C@H]3c4[nH]c5ccccc5c4CCN3C[C@H]2CC[C@@H]1O [Rauwolscine hydrochloride]	–	−0.7161	–

Compound	Z-score	Z-score [1]	Rank in normalized ORO score from screen
NC[C@@H]1O[C@H](O[C@H]2[C@@H](O)[C@H](O[C@@H]3[C@@H](O)[C@H](N)C[C@H](N)[C@H]3O[C@H]3O[C@H](CO)[C@@H](O)[C@H](O)[C@H]3N)O[C@@H]2CO)[C@H](N)[C@@H](O)[C@@H]1O [Paromomycin sulfate]	–	−0.0138	–
OCCN1CCN(CCCN2c3ccccc3Sc3ccc(Cl)cc32)CC1 [Perphenazine]	–	−1.5218	–
Alverine citrate salt	–	−0.9516	–
CC1Cc2ccccc2N1NC(=O)c1ccc(Cl)c(S(N)(=O)=O)c1 (centres unmarked) [Indapamide]	–	−0.6747	–
CO[C@@H]1[C@@H](OC(N)=O)[C@@H](O)[C@H](Oc2ccc3c(O)c(NC(=O)c4ccc(O)c(CC=C(C)C)c4)c(=O)oc3c2C)OC1(C)C [Novobiocin sodium salt]	–	−1.5591	–
NC(CO)C(=O)NNCc1ccc(O)c(O)c1O (centres unmarked) [Benserazide hydrochloride]	–	−0.638	–
Nc1ccc(S(=O)(=O)Nc2ccc(Cl)nn2)cc1 [Sulfachloropyridazine]	–	1.134	–
CC(=O)/N=c1/sc(S(N)(=O)=O)nn1C [Methazolamide]	–	0.06841	–
CN(CCCCCCCCCCN(C)C(=O)Oc1cccc([N+](C)(C)C)c1)C(=O)Oc1cccc([N+](C)(C)C)c1 [Demecarium bromide]	–	−0.6009	–
NCc1ccc(S(N)(=O)=O)cc1 [Mafenide hydrochloride]	–	0.8468	–
c1ccc2c(c1)CCCc1cc(NCCN3CCOCC3)nnc1-2 [SR-95639A]	–	−0.7703	–
CC(C)(Sc1cc(C(C)(C)C)c(O)c(C(C)(C)C)c1)Sc1cc(C(C)(C)C)c(O)c(C(C)(C)C)c1 [Probucol]	–	1.626	–
Cc1cc(C(=O)NNCc2ccccc2)no1 [Isocarboxazid]	–	1.91	–
CCN(CC)CCOc1ccc(C(=C(Cl)c2ccccc2)c2ccccc2)cc1.O=C(O)CC(O)(CC(=O)O)C(=O)O [Clomiphene citrate (Z,E), reference compound]	–	1.107	928
Cn1nnnc1SCC1=C(C(=O)O)N2C(=O)[C@@H](NC(=O)[C@H](O)c3ccccc3)[C@H]2SC1 [Cefamandole sodium salt]	–	−0.5703	–
CN1[C@@H]2CC[C@H]1C[C@@H](OC(=O)C(CO)c1ccccc1)C2 (some centres unmarked) [Atropine sulfate monohydrate]	–	1.183	–
C=CC(N)CCC(=O)O (centres unmarked) [Vigabatrin]	–	−0.7771	–
Cc1nnc(NS(=O)(=O)c2ccc(N)cc2)s1 [Sulfamethizole]	–	−0.7734	–
Viomycin sulfate	–	1.64	–
C[C@]12CCC(=O)C=C1CC[C@@H]1[C@@H]2C(=O)C[C@@]2(C)[C@H]1CC[C@]2(O)C(=O)CO [Cortisone]	–	−1.8033	–
C=CCSCC1Nc2cc(Cl)c(S(N)(=O)=O)cc2S(=O)(=O)N1 (centres unmarked) [Althiazide]	–	0.2816	–
C[C@H](O)C(=O)Nc1c(I)c(C(=O)NC(CO)CO)c(I)c(C(=O)NC(CO)CO)c1I [Iopamidol]	–	1.108	–
Nc1nc(O)c2ncn(COC(CO)CO)c2n1 [Ganciclovir]	–	−0.9945	–
NC[C@H]1CC[C@H](C(=O)O)CC1 [Tranexamic acid]	–	0.05824	–

Compound	Z-score	Z-score [1]	Rank in normalized ORO score from screen
COC(=O)[C@H]1[C@H]2C[C@H]3c4[nH]c5ccccc5c4CCN3C[C@@H]2CC[C@@H]1O.Cl [Corynanthine hydrochloride]	–	−0.2498	–
COc1ccc2cc(CCC(C)=O)ccc2c1 [Nabumetone]	–	−0.6754	–
CC(=O)c1cc2ccccc2oc1=O [3-Acetylcoumarin]	–	−0.8473	–
CSc1ccc2c(c1)C(N1CCN(C)CC1)Cc1ccccc1S2.O=C(O)/C=C\C(=O)O (centres unmarked) [Methiothepin maleate]	–	0.08061	658
Cc1cc2c(C(C)C)c(O)c(O)c(C=O)c2c(O)c1-c1c(C)cc2c(C(C)C)c(O)c(O)c(C=O)c2c1O [Gossypol]	–	−2.0704	8
N=C(N)NC(=O)c1nc(Cl)c(N)nc1N [Amiloride hydrochloride dihydrate]	–	1.955	–
NCCc1cc[nH]n1 [Betazole hydrochloride]	–	−0.1702	–
CC(=O)N[C@@H](CC(C)C)C(=O)O [N-Acetyl-L-leucine]	–	−1.2512	–
CCN(CC)CCNC(=O)c1cc(S(C)(=O)=O)ccc1OC [Tiapride hydrochloride]	–	−1.0178	–
C[C@H]1CC[C@]2(NC1)O[C@H]1C[C@H]3[C@@H]4CC[C@H]5C[C@@H](O[C@@H]6O[C@H](CO)[C@H](O[C@@H]7O[C@H](CO)[C@@H](O)[C@H](O[C@@H]8OC[C@@H](O)[C@H](O)[C@H]8O)[C@H]7O[C@@H]7O[C@H](CO)[C@@H](O)[C@H](O)[C@H]7O)[C@H](O)[C@H]6O)CC[C@]5(C)[C@H]4CC[C@]3(C)[C@H]1[C@@H]2C [Tomatine, reference compound]	–	−2.0901	–
COC(=O)C1=C(C)NC(C)=C(C(=O)OCCN(C)Cc2ccccc2)C1c1cccc([N+](=O)[O-])c1 (centres unmarked) [Nicardipine hydrochloride]	–	1.451	–
COc1ccc2c(c1O)-c1c(OC)c(OC)cc3c1[C@H](C2)N(C)CC3 [Isocorydine (+)]	–	−0.7668	–
C#CCN(C)CCCOc1ccc(Cl)cc1Cl [Clorgyline hydrochloride]	–	−0.8658	–
O=C1CC2(CCCC2)CC(=O)N1CCCCN1CCN(c2ncccn2)CC1 [Buspirone hydrochloride]	–	−0.0845	–
CC[N+](C)(CC)CCOC(=O)C1c2ccccc2Oc2ccccc21 [Methantheline bromide]	–	−0.7033	–
CO[C@@]1(NC(=O)CSCC#N)C(=O)N2C(C(=O)O)=C(CSc3nnnn3C)CS[C@@H]21 [Cefmetazole sodium salt]	–	−0.8537	–
Nc1cc(-c2ccncc2)c[nH]c1=O [Amrinone]	–	1.535	–
COc1ccc2c(c1)N(C[C@H](C)CN(C)C)c1ccccc1S2.O=C(O)/C=C\C(=O)O [Methotrimeprazine maleat salt]	–	1.548	–
CC(C)c1c(CN(C)C(C)Cc2ccccc2)n(C)n(-c2ccccc2)c1=O (centres unmarked) [Famprofazone]	–	0.6911	–
CC(=O)O[C@]1(C(C)=O)CC[C@H]2[C@@H]3C=C(C)C4=CC(=O)CC[C@]4(C)[C@H]3CC[C@@]21C [Megestrol acetate]	–	1.362	–
CC(C)[N+]1(C)[C@@H]2CC[C@H]1CC(OC(=O)C(CO)c1ccccc1)C2.[Br-] (some centres unmarked) [Ipratropium bromide]	–	−0.1032	–
Cl.Cl.c1ccc2c3c([nH]c2c1)C1C2CCC(C4CCCNC42)N1CC3 (centres unmarked) [Nitrarine dihydrochloride]	–	−0.8582	–
